Data taken from US20240148821A1, “PHARMACEUTICAL USE OF CYCLIC PEPTIDE COMPOUND” (CHUGAI SEIYAKU KABUSHIKI KAISHA, priority 2021, published 2024).
Numbered stars: 1 amine (or outer) side, 2 acyl side, 3 side chain; on linkers, the order of the positions; unused ones are H or OH. Bridge positions count the residues as written; N and C are the ends. Square brackets hold non-standard residues; d marks the D form. Peptide text beside a SMILES is read from it. * marks the point of attachment. hPhe(3-Cl-4-CF3) = N[C@@H](CCc1ccc(C(F)(F)F)c(Cl)c1)C(=O)O; NMePhe(4-CF3) = CN[C@@H](Cc1ccc(C(F)(F)F)cc1)C(=O)O; hPhe(4-CF3) = N[C@@H](CCc1ccc(C(F)(F)F)cc1)C(=O)O; X37 = CC(C)(C)NC(=O)COC[C@H](CC(=O)[*:1])N[*:2]; NMePhe(4-Me) = CN[C@@H](Cc1ccc(C)cc1)C(=O)O; NMeGly(cPent) = CN[C@H](C(=O)O)C1CCCC1; NMeGly(cBu) = CN[C@H](C(=O)O)C1CCC1; NMeCha = CN[C@@H](CC1CCCCC1)C(=O)O; NMeF = CN[C@@H](Cc1ccccc1)C(=O)O; NMeD = CN[C@@H](CC(=O)O)C(=O)O; NMeL = CN[C@@H](CC(C)C)C(=O)O; NMeNle = CCCC[C@H](NC)C(=O)O; NMeNva = CCC[C@H](NC)C(=O)O; NMeV = CN[C@H](C(=O)O)C(C)C; d(β3hA) = C[C@@H](N)CC(=O)O; NMeAbu = CC[C@H](NC)C(=O)O; NMeS = CN[C@@H](CO)C(=O)O; NMeA = CN[C@@H](C)C(=O)O; Piperidide = C1CCN(*)CC1; dNMeA = CN[C@H](C)C(=O)O; Ac5c = NC1(C(=O)O)CCCC1; Aze = O=C(O)[C@@H]1CCN1; CH2CMe2OH = CC(C)(O)C*; Aib = CC(C)(N)C(=O)O; Isopentyl = CC(C)CC*; NEtG = CCNCC(=O)O; Sar = CNCC(=O)O

target: protein-protein interaction between Kras and SOS1 (biotin-tagged human Kras loaded with GDP, His-tagged human SOS1) (Homo sapiens (Human), UniProt P01116, G12D); assay: Protein-protein interaction inhibition between Kras and SOS1 (KrasG12D-SOS PPI) using AlphaScreen; format: biochemical; details: AlphaScreen; biotin-tagged human Kras loaded with GDP, His-tagged human SOS1; read-out: KRAS G12D-SOS PPI IC50;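 further: kras produced in E. coli, Ni-coupled donor beads and streptavidin acceptor beads, excitation 680 nm with emission detected at 520–620 nm via singlet oxygen transfer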

For `CC[C@H](C)[C@@H]1NC(=O)[C@H](C)N(C)C(=O)C[C@@H](C)NC(=O)[C@H](C2CCCC2)N(C)C(=O)C2(CCCC2)NC(=O)[C@@H]2CCCN2C(=O)[C@H](CCc2ccc(C(F)(F)F)c(Cl)c2)NC(=O)CN(C)C(=O)[C@H](Cc2ccc(C(F)(F)F)cc2)N(C)C(=O)[C@@H]2CCN2C(=O)[C@H](C)N(C)C1=O` [Compound 1512] (cyclo([Ac5c][NMeGly(cPent)][d(β3hA)][NMeA]I[NMeA][Aze][NMePhe(4-CF3)][Sar][hPhe(3-Cl-4-CF3)]P)), which IC50 is on record?
Its IC50 is 0.0012 µM.

`CC[C@H](C)[C@@H]1NC(=O)[C@H](C)N(C)C(=O)C[C@@H](C)NC(=O)[C@H](C2CCCC2)N(C)C(=O)C2(CCCC2)NC(=O)[C@@H]2CCCN2C(=O)[C@H](CCc2ccc(C(F)(F)F)c(Cl)c2)NC(=O)CN(C)C(=O)[C@H](Cc2ccc(C)cc2)N(C)C(=O)[C@@H]2CCN2C(=O)[C@H](C)N(C)C1=O` [Compound 1514] (cyclo([Ac5c][NMeGly(cPent)][d(β3hA)][NMeA]I[NMeA][Aze][NMePhe(4-Me)][Sar][hPhe(3-Cl-4-CF3)]P)) was tested. Which IC50 did it give?
The IC50 was 0.001 µM.

How did the IC50 turn out when `CC[C@H](C)[C@@H]1NC(=O)[C@H](CC(C)C)N(C)C(=O)C[C@@H](C)NC(=O)[C@H](CC(C)C)N(C)C(=O)C(C)(C)NC(=O)[C@H](COCC(C)(C)O)N(C)C(=O)[C@H](CCc2ccc(C(F)(F)F)c(Cl)c2)NC(=O)CN(CC)C(=O)[C@H](COCCC(C)C)N(C)C(=O)CN(C)C(=O)CN(C)C1=O` [Compound 1516] (cyclo([Aib][NMeL][d(β3hA)][NMeL]I[Sar][Sar][NMeS](Isopentyl)[NEtG][hPhe(3-Cl-4-CF3)][NMeS](CH2CMe2OH))) was run?
The IC50 was 0.34 µM.

How did the IC50 turn out when `CC[C@H](C)[C@@H]1NC(=O)[C@H](C)N(C)C(=O)C[C@@H](C)NC(=O)[C@H](C2CCCC2)N(C)C(=O)C2(CCCC2)NC(=O)[C@@H]2CCCN2C(=O)[C@H](CCc2ccc(C(F)(F)F)c(Cl)c2)NC(=O)[C@H]2CCCN2C(=O)[C@H](Cc2ccc(C)cc2)N(C)C(=O)CN(C)C(=O)CN(C)C1=O` [Compound 1525] (cyclo([Ac5c][NMeGly(cPent)][d(β3hA)][NMeA]I[Sar][Sar][NMePhe(4-Me)][dP][hPhe(3-Cl-4-CF3)]P)) was run?
The IC50 was 0.1 µM.

For `CC[C@H](C)[C@@H]1NC(=O)[C@H](CC(C)C)N(C)C(=O)C[C@@H](C)NC(=O)[C@H](C2CCCC2)N(C)C(=O)C2(CCCC2)NC(=O)[C@@H]2CCCN2C(=O)[C@H](CCc2ccc(C(F)(F)F)c(Cl)c2)NC(=O)[C@@H](C)N(C)C(=O)[C@H](CC2CCCCC2)N(C)C(=O)[C@@H]2CCN2C(=O)CN(C)C1=O` [Compound 1531] (cyclo([Ac5c][NMeGly(cPent)][d(β3hA)][NMeL]I[Sar][Aze][NMeCha][dNMeA][hPhe(3-Cl-4-CF3)]P)), which IC50 is on record?
The IC50 was 0.23 µM.

With `CC[C@H](C)[C@@H]1NC(=O)[C@H](CC(C)C)N(C)C(=O)C[C@@H](COCC(=O)NC(C)(C)C)NC(=O)[C@H](CC(C)C)N(C)C(=O)C(C)(C)NC(=O)[C@H](CC(C)C)N(C)C(=O)[C@H](CCc2ccc(C(F)(F)F)cc2)NC(=O)CN(C)C(=O)[C@H](COCCC(C)C)N(C)C(=O)CN(C)C(=O)CN(C)C1=O` [Compound 1538] ([NMeL]I[Sar][Sar][NMeS](Isopentyl)[Sar][hPhe(4-CF3)][NMeL][Aib][NMeL]; linker N-C via X37) as the compound, how does the IC50 read?
Its IC50 is 0.11 µM.

How did the IC50 turn out when `CCCC[C@H]1C(=O)N2CC[C@H]2C(=O)N(C)[C@@H](CC2CCCCC2)C(=O)N(C)CC(=O)N[C@@H](CCc2ccc(C(F)(F)F)c(Cl)c2)C(=O)N2CCC[C@H]2C(=O)NC2(CCCC2)C(=O)N(C)[C@@H](C(C)C)C(=O)N[C@H](C)CC(=O)N(C)[C@@H](CC(C)C)C(=O)N[C@@H]([C@@H](C)CC)C(=O)N1C` [Compound 1548] (cyclo([Ac5c][NMeV][d(β3hA)][NMeL]I[NMeNle][Aze][NMeCha][Sar][hPhe(3-Cl-4-CF3)]P)) was run?
The IC50 was 0.14 µM.

Which IC50 does the source give for `CC[C@H](C)[C@@H]1NC(=O)[C@H](CC(C)C)N(C)C(=O)C[C@@H](C(=O)N2CCCCC2)N(C)C(=O)[C@H](C(C)C)N(C)C(=O)C2(CCCC2)NC(=O)[C@@H]2CCCN2C(=O)[C@H](CCc2ccc(C(F)(F)F)c(Cl)c2)NC(=O)CN(C)C(=O)[C@H](CC2CCCCC2)N(C)C(=O)[C@@H]2CCN2C(=O)[C@H](C2CCC2)N(C)C1=O` [Compound 1554] ([NMeL]I[NMeGly(cBu)][Aze][NMeCha][Sar][hPhe(3-Cl-4-CF3)]P[Ac5c][NMeV][NMeD]-Piperidide; lactam N-11) here?
Its IC50 is 0.2 µM.

How did the IC50 turn out when `CC[C@H](C)[C@@H]1NC(=O)[C@H](CC(C)C)N(C)C(=O)C[C@@H](C(=O)N2CCCCC2)N(C)C(=O)[C@H](C(C)C)N(C)C(=O)C2(CCCC2)NC(=O)[C@@H]2CCCN2C(=O)[C@H](CCc2ccc(C(F)(F)F)c(Cl)c2)NC(=O)CN(C)C(=O)[C@H](CC2CCCCC2)N(C)C(=O)[C@@H]2CCN2C(=O)[C@H](CC(C)C)N(C)C1=O` [Compound 1558] ([NMeL]I[NMeL][Aze][NMeCha][Sar][hPhe(3-Cl-4-CF3)]P[Ac5c][NMeV][NMeD]-Piperidide; lactam N-11) was run?
The IC50 was 0.071 µM.

For `CCC[C@H]1C(=O)N2CC[C@H]2C(=O)N(C)[C@@H](CC2CCCCC2)C(=O)N(C)CC(=O)N[C@@H](CCc2ccc(C(F)(F)F)c(Cl)c2)C(=O)N2CCC[C@H]2C(=O)NC2(CCCC2)C(=O)N(C)[C@@H](C(C)C)C(=O)N[C@H](C)CC(=O)N(C)[C@@H](CC(C)C)C(=O)N[C@@H]([C@@H](C)CC)C(=O)N1C` [Compound 1560] (cyclo([Ac5c][NMeV][d(β3hA)][NMeL]I[NMeNva][Aze][NMeCha][Sar][hPhe(3-Cl-4-CF3)]P)), which IC50 is on record?
The IC50 was 0.16 µM.

`CC[C@H](C)[C@@H]1NC(=O)[C@H](CC(C)C)N(C)C(=O)C[C@@H](C(=O)N2CCCCC2)N(C)C(=O)[C@H](C(C)C)N(C)C(=O)C2(CCCC2)NC(=O)[C@@H]2CCCN2C(=O)[C@H](CCc2ccc(C(F)(F)F)c(Cl)c2)NC(=O)CN(C)C(=O)[C@H](CC2CCCCC2)N(C)C(=O)[C@@H]2CCN2C(=O)[C@H](Cc2ccccc2)N(C)C1=O` [Compound 1561] ([NMeL]I[NMeF][Aze][NMeCha][Sar][hPhe(3-Cl-4-CF3)]P[Ac5c][NMeV][NMeD]-Piperidide; lactam N-11) was tested. Which IC50 did it give?
Its IC50 is 0.033 µM.

For `CCC[C@H]1C(=O)N[C@@H]([C@@H](C)CC)C(=O)N(C)[C@@H](C)C(=O)N2CC[C@H]2C(=O)N(C)[C@@H](CC2CCCCC2)C(=O)N(C)CC(=O)N[C@@H](CCc2ccc(C(F)(F)F)c(Cl)c2)C(=O)N2CCC[C@H]2C(=O)NC2(CCCC2)C(=O)N(C)[C@@H](C(C)C)C(=O)N[C@H](C)CC(=O)N1C` [Compound 1564] (cyclo([Ac5c][NMeV][d(β3hA)][NMeNva]I[NMeA][Aze][NMeCha][Sar][hPhe(3-Cl-4-CF3)]P)), which IC50 is on record?
Its IC50 is 0.038 µM.

For `CCCC[C@H]1C(=O)N[C@@H]([C@@H](C)CC)C(=O)N(C)[C@@H](C)C(=O)N2CC[C@H]2C(=O)N(C)[C@@H](CC2CCCCC2)C(=O)N(C)CC(=O)N[C@@H](CCc2ccc(C(F)(F)F)c(Cl)c2)C(=O)N2CCC[C@H]2C(=O)NC2(CCCC2)C(=O)N(C)[C@@H](C(C)C)C(=O)N[C@H](C)CC(=O)N1C` [Compound 1568] (cyclo([Ac5c][NMeV][d(β3hA)][NMeNle]I[NMeA][Aze][NMeCha][Sar][hPhe(3-Cl-4-CF3)]P)), which IC50 is on record?
Its IC50 is 0.094 µM.

With `CC[C@H](C)[C@@H]1NC(=O)[C@H](CC(C)C)N(C)C(=O)C[C@@H](C(=O)N2CCCCC2)N(C)C(=O)[C@H](C(C)C)N(C)C(=O)C2(CCCC2)NC(=O)[C@@H]2CCCN2C(=O)[C@H](CCc2ccc(C(F)(F)F)c(Cl)c2)NC(=O)CN(C)C(=O)[C@H](CC2CCCCC2)N(C)C(=O)[C@@H]2CCN2C(=O)[C@H](CC)N(C)C1=O` [Compound 1569] ([NMeL]I[NMeAbu][Aze][NMeCha][Sar][hPhe(3-Cl-4-CF3)]P[Ac5c][NMeV][NMeD]-Piperidide; lactam N-11) as the compound, how does the IC50 read?
The IC50 was 0.016 µM.
